{"source": "patent US9492471B2", "about": "“Methods of treating a disease or disorder associated with Bruton'S Tyrosine Kinase” (Celgene Avilomics Research, Inc., priority 2013, dated 2016)", "experiment_in_all_cases": "HotSpot kinase profiling", "format_in_all_cases": "biochemical", "key": {"Btk": {"molecular_target": "T1, Btk (Homo sapiens, UniProt Q06187)", "T1 construct": "purchased Reaction Biology Corp", "T1 sequence (Q06187 whole entry)": "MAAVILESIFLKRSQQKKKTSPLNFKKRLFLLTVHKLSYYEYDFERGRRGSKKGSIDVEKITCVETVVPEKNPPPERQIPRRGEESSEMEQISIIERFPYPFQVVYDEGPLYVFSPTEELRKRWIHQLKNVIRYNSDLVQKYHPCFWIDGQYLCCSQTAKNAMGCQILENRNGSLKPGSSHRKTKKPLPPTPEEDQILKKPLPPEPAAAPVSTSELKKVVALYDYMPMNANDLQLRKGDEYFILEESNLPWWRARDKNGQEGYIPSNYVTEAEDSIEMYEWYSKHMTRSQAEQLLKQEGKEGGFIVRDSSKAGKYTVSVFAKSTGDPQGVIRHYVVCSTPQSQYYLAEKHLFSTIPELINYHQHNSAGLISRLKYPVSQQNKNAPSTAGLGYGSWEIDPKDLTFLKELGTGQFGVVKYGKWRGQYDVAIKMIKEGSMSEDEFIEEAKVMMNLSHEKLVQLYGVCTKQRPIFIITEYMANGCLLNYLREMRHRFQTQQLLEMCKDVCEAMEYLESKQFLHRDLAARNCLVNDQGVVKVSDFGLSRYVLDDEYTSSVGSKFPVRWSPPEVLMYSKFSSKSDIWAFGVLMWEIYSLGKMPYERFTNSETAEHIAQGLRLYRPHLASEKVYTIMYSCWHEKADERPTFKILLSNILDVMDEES", "outline": "(§1)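 Activity is measured by radiolabel transfer captured on P81 filters after a 2 h room-temperature reaction of kinase, substrate and cofactors. Values are percent inhibition against DMSO.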"}, "ERBB4/HER4": {"molecular_target": "T2, ERBB4/HER4 (Homo sapiens, UniProt Q15303)", "T2 construct": "purchased Reaction Biology Corp", "T2 sequence (Q15303 26-1308)": "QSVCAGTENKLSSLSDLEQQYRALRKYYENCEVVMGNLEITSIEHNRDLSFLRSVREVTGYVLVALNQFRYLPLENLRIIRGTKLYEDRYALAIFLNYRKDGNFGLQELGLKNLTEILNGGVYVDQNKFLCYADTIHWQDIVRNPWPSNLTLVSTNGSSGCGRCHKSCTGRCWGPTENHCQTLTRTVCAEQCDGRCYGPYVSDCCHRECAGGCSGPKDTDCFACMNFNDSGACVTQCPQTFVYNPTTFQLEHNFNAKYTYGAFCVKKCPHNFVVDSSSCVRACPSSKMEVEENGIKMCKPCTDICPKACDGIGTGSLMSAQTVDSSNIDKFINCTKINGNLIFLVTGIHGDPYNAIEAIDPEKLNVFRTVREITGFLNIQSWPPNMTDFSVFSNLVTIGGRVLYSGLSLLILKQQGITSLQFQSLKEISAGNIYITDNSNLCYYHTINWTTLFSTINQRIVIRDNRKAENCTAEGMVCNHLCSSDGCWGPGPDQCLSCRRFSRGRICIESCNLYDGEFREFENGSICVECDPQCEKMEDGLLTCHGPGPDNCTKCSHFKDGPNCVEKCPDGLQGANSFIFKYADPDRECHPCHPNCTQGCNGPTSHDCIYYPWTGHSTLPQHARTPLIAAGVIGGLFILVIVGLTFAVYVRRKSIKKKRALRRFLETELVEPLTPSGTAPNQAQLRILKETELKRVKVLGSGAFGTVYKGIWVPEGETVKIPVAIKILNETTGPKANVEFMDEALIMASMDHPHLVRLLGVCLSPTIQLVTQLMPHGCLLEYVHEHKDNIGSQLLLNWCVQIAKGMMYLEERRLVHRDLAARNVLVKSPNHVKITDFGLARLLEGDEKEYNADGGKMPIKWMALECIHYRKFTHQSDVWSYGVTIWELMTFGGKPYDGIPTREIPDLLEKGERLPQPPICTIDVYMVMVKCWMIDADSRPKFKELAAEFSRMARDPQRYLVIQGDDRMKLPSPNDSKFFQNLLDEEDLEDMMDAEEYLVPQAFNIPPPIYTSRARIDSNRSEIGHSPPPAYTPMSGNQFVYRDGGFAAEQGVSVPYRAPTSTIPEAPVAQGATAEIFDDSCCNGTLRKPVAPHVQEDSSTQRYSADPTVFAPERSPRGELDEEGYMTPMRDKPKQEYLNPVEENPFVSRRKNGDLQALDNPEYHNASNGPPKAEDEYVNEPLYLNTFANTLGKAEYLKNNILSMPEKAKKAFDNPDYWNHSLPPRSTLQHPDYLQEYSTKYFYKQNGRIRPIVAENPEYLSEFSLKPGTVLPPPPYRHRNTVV", "outline": "as §1"}, "IKKe/IKBKE": {"molecular_target": "T3, IKKe/IKBKE (Homo sapiens, UniProt Q14164)", "T3 construct": "purchased Reaction Biology Corp", "T3 sequence (Q14164 1-716)": "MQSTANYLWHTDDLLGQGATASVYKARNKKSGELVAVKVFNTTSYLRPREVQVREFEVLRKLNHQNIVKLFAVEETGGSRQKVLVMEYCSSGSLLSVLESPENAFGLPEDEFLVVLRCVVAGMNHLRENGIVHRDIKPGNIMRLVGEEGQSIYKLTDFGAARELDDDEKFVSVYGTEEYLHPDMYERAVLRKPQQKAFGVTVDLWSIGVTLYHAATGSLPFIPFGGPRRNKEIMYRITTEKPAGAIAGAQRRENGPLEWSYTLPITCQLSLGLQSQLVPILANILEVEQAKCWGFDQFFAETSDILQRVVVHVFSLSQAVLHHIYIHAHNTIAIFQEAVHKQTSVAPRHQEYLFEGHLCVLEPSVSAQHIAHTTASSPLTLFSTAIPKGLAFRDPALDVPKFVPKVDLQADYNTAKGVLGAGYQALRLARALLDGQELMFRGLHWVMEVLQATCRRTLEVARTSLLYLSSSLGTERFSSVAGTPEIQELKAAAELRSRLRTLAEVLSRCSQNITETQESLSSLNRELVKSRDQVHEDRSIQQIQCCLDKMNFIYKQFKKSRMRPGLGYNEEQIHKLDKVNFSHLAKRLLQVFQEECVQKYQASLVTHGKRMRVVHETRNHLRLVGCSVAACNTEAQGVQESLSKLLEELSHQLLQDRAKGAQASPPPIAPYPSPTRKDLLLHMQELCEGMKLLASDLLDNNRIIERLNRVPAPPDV", "outline": "as §1"}, "MAPKAPK3": {"molecular_target": "T4, MAPKAPK3 (Homo sapiens, UniProt Q16644)", "T4 construct": "purchased Reaction Biology Corp", "T4 sequence (Q16644 whole entry)": "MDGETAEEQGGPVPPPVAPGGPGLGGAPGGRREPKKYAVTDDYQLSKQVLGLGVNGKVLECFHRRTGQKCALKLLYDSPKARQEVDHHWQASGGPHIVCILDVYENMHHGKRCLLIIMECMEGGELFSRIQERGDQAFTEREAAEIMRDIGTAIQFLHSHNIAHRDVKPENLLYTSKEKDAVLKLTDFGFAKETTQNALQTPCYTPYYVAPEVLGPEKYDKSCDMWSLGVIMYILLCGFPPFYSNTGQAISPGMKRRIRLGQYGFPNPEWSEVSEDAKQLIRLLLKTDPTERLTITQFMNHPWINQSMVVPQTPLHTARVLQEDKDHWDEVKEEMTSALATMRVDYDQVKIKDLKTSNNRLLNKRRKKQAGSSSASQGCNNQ", "outline": "as §1"}, "NEK9": {"molecular_target": "T5, NEK9 (Homo sapiens, UniProt Q8TD19)", "T5 construct": "purchased Reaction Biology Corp", "T5 sequence (Q8TD19 1-979)": "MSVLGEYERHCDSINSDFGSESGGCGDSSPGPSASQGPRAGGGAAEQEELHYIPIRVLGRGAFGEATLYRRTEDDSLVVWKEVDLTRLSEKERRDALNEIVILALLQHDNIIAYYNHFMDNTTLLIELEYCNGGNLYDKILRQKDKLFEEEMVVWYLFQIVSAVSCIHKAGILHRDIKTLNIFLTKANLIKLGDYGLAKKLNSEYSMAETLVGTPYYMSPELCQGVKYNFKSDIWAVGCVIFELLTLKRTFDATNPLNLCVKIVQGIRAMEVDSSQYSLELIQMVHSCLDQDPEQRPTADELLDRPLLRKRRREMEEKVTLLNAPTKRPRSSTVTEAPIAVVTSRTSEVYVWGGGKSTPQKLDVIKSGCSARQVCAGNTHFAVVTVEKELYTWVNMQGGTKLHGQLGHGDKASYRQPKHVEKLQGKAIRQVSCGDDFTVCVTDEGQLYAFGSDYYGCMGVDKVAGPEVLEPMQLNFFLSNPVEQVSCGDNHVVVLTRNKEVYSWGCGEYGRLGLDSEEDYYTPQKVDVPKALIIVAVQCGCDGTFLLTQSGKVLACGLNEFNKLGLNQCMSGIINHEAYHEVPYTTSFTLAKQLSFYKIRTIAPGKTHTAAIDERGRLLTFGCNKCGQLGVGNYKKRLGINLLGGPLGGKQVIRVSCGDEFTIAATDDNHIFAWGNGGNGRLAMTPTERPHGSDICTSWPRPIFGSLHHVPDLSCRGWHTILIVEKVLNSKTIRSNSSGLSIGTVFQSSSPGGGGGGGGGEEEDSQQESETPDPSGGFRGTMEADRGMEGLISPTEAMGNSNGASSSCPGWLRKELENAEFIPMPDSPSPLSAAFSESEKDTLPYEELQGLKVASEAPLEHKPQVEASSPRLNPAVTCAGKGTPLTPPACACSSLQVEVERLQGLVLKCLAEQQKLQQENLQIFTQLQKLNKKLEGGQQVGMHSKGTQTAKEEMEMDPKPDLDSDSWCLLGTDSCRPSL", "outline": "as §1"}, "P38g": {"molecular_target": "T6, P38g (Homo sapiens, UniProt P53778)", "T6 construct": "purchased Reaction Biology Corp", "T6 sequence (P53778 1-367)": "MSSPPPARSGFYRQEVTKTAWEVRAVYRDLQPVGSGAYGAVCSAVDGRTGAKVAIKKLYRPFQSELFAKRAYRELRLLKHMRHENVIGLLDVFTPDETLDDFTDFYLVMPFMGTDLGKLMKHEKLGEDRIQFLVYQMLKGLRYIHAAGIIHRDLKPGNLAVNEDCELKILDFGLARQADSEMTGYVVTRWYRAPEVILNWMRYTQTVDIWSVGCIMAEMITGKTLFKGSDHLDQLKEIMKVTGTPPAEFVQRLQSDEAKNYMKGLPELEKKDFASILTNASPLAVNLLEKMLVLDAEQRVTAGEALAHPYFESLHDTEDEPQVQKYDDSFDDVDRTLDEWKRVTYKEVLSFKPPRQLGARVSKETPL", "outline": "as §1"}, "[1]": {"details": "read-out: % Enzyme Activity (relative to DMSO controls) Run 1"}, "[2]": {"details": "read-out: % Enzyme Activity (relative to DMSO controls) Run 2"}}, "note": "Where two headings read alike, the source gives them in different places."}
{"smiles": "C=CC(=O)Nc1cccc(Nc2nc(Nc3ccc(OCCOC)c(F)c3)ncc2F)c1", "note": "[Compound 2]", "values": [{"measurement": "inhibition at 3 µM", "setting": "Btk", "result": 95.5, "unit": "%"}, {"measurement": "remaining activity at 3 µM", "setting": "Btk; [1]", "result": 3.69, "unit": "%"}, {"measurement": "remaining activity at 3 µM", "setting": "Btk; [2]", "result": 5.4, "unit": "%"}, {"measurement": "inhibition at 3 µM", "setting": "ERBB4/HER4", "result": 91.3, "unit": "%"}, {"measurement": "remaining activity at 3 µM", "setting": "ERBB4/HER4; [1]", "result": 9.15, "unit": "%"}, {"measurement": "remaining activity at 3 µM", "setting": "ERBB4/HER4; [2]", "result": 8.32, "unit": "%"}, {"measurement": "inhibition at 3 µM", "setting": "IKKe/IKBKE", "result": 21.8, "unit": "%"}, {"measurement": "remaining activity at 3 µM", "setting": "IKKe/IKBKE; [1]", "result": 78.3, "unit": "%"}, {"measurement": "remaining activity at 3 µM", "setting": "IKKe/IKBKE; [2]", "result": 78.2, "unit": "%"}, {"measurement": "inhibition at 3 µM", "setting": "MAPKAPK3", "result": -2.45, "unit": "%"}, {"measurement": "remaining activity at 3 µM", "setting": "MAPKAPK3; [1]", "result": 102, "unit": "%"}, {"measurement": "remaining activity at 3 µM", "setting": "MAPKAPK3; [2]", "result": 103, "unit": "%"}, {"measurement": "inhibition at 3 µM", "setting": "NEK9", "result": 15.9, "unit": "%"}, {"measurement": "remaining activity at 3 µM", "setting": "NEK9; [1]", "result": 83.8, "unit": "%"}, {"measurement": "remaining activity at 3 µM", "setting": "NEK9; [2]", "result": 84.3, "unit": "%"}, {"measurement": "inhibition at 3 µM", "setting": "P38g", "result": -5.53, "unit": "%"}, {"measurement": "remaining activity at 3 µM", "setting": "P38g; [1]", "result": 105, "unit": "%"}, {"measurement": "remaining activity at 3 µM", "setting": "P38g; [2]", "result": 106, "unit": "%"}]}
